Source: patent US20230416785A1, “NUCLEASE AND APPLICATION THEREOF” (CRISP-HR Therapeutics, Inc., priority 2020, published 2023)

Tests used:
Type in all cases: cell-based, human
Beta-Catenin1 [1] = experiment: Beta-Catenin1:mCherry knock-in in HEK293 cells
AAVS1 [2] = experiment: RLucRT luminescence HDR assay in H1299 cells; conditions: for luminescence relative to Cas9: RLucRT (2.0 kb)
Method: FIG. 4B illustrates experimental procedures for RLucRT experiments. Diagram showing experimental procedure for the dsDNA RLucRT HDR assay in H1299 cells. […] After two days, cellular viability is quantified via Resazurin assay, then cells are washed with PBS then lysed. Lysate is then incubated with Coelenterazine, and luminescence immediately quantified via plate reader.
For these experiments, the well characterized safe harbor site AAVS1 was used combined with previously established and functional guide RNAs AAVS1 T1 and T2, which will be referred to as G1 and G2 respectively hereafter. […] As with the puromycin resistance cassette, PCR amplified dsDNA was used as opposed to plasmids to avoid confounding results when quantifying HDR rates, and to avoid extra integration of plasmid specific sequences in the genome.
(§1) Next the viability of transfected cells was quantified via resazurin after two days, then cells were washed with PBS, then lysed and luminescence quantified via plate reader (FIG. 4B). […] Next Luminescence was quantified via the Renilla-Glo Luciferase Assay System (Promega) using a 96 well plate reader with luminescence capabilities (Tecan). After data collection, raw luminescence was background subtracted from non-transfected control cells, corrected for cellular viability, and plotted in FIG. 4D.
(§2) After two days, cellular viability was quantified via Resazurin, then washed with PBS and lysed with 25 μL of cell lysis buffer, and luciferase activity was quantified via Renilla Luciferase Assay (Promega) and using a Tecan Infinite Mplex plate reader.

H1299 cells = experiment: Cellular viability of transfected H1299 cells (resazurin assay); conditions: for cellular viability compared to RLucRT alone: H1299 cells, AAVS1 G1 or G2 plus RLucRT, two days
Excerpt: as §1
Unless otherwise noted, adherent cells (A549 or H1299) were seeded in 96 well plates and grown in either 50/50 F-12/DMEM or RPMI-1640 respectively, supplemented with 5% FBS and grown to roughly 70% confluency. Cells were then transfected with either Cal-Phos as described in Chen 2012 or Lipofectamine 3000 (Thermofisher). Fresh media was exchanged the next day and cellular viability was quantified on day 2.
20 μL of 0.15 mg/mL Resazurin solution was added to cells either plated in 96 well plates for all cell lines, which were then incubated for ˜4 hours at 37° C. Cellular toxicity was quantified using a Tecan SpectraFlour Plus plate reader (Tecan) using a 535/595 filter set. Raw data was then normalized to the mean of the untransfected controls and plotted as described.
as §2

U2OS cells = experiment: RPA foci quantification in U2OS cells
Method: After two days cells, cells were prepared for imaging as in Murkherjee et al 2015. Cytoplasm was extracted via two sequential 10 minute washes on ice consisting of Extraction Buffer 1: 10 mM PIPES, pH 7.0; 100 mM NaCl; 300 mM Sucrose; 3 mM MgCl2; 1 mM EGTA, 0.5% Triton X-100 and Extraction Buffer 2: 10 mM Tris-HCl, pH 7.5; 10 mM NaCl; 3 mM MgCl2, 1% Tween 40, 0.5% sodium deoxycholate. Cells were then fixed using 4% PFA for 20 minutes at RT, then washed three times with PBST, blocked in 5% goat-serum for 30 minutes at RT, then incubated overnight at 4° C. with 1:1000 dilution of mouse anti-RPA (Calbiochem; Catalog no: NA191). Next day cells were washed 5× with PBST with 20 minutes per wash, then incubated overnight at 4° C. with a 1:1000 dilution of anti-mouse Alexa fluor 568 (Thermo Fisher). Cells were washed next day cells were washed 5× with PBST with 20 minutes per wash, then mounted in Vectashield with DAPI (Vector Labs; Catalog no: H-1200), and imaged at 10× using an Leica Stellaris Confocal Microscope. Foci per cell were quantified using a custom script to identify number of RPA foci per cell. […] After two days cells were fixed, then cytoplasm extracted on ice, then remaining nuclei were stained for RPA. At the end of staining, nuclei were labeled with DAPI and cells were imaged via confocal microscopy. Post-imaging nuclei identification and RPA thresholding allowed quantification of the number of RPA foci per nuclei.

[3] = tested on: Safe Harbor Site (SHS)-231; experiment: SHS-231 mNeon knock-in in H1299 cells
Excerpt: After reaching confluency, cells were tryspinized and seeded in 6 well plates, which were then imaged at 10× magnification using a Leica THUNDER Epifluorescent microscope. After imaging, thresholds and ROIs for mNeon+ cells were generated using FIJI (ImageJ).
After 7 days, cells were tryspinized and transferred to 6 well plates, and grown for an additional 7 days. On Day 14, media was replaced with HBSS (to reduce background for imaging) and imaged using a Cytation5 imaging system. Imaging was performed by taking a 6×6 stitched image in the middle of the well using an 10× magnification lens, where both brightfield and RFP images were acquired. HDR rates were quantified via ImageJ, two independent replicates were performed per treatment.

endogenous H2B = experiment: H2B-mNeon knock-in HDR quantification in K562 cells; conditions: H2B-mNeon RT
Method: After two days, cells were fixed in 4% PFA washed in PBS, then directly imaged, with cells showing nuclear localized fluorescence counted as successful HDR events.
K562 were grown in 24 well plates with RPMI-1640 supplemented with 5% FBS until roughly 70% confluent. At that time cells were either electroporated using the mNeon system (Invitrogen) using optimized settings for K562 cells, or lipofectamine 3000 again following manufactures instructions. Cells were then returned to 24 well plates with fresh media and grown for at least two days before being used in downstream analysis.
After 2 days, cells attached to coverslips coated with 0.01% poly-1-lysine, and were fixed in 4% PFA (Thermofisher) for 15 minutes at RT. After fixation, cells were washed 3× in PBS, mounted in 50% glycerol and imaged on a Nikon Eclipse E600 with standard FITC filters. For quantification, random patches of cells (usually between 8-15 cells per image) were identified via Brightfield, then fluoresce images were taken with constant illumination and exposure time (100%, and 110 ms respectively).

AAVS1 [4] = experiment: RLucRT HDR assay in A549 cells; conditions: G1
Beta-Catenin1 [5] = experiment: Beta-Catenin1:mCherry HDR in H1299 cells
Method: After three days, media was replaced with HBSS (to reduce background for imaging) imaged using an EVOS M5000 imaging system. Imaging was performed by randomly finding and focusing on at least ten different sections per well using a 20× magnification lens, after which both brightfield and RFP images were acquired. Imaged were quantified by hand, using control images as the basis for RFP/mCherry background fluorescence.

[6] = SHS-231, hH2B-G4 or B-Catenin1, vs non-treated control cells
[7] = SHS-231 G1, 14 Days, stitched images

**Q.** Which results are given for “Cas9-HR 8: hExo1(1-352)-Cas9 fusion of FIG. 1A; E. coli codon optimized vectors SEQ ID NO: 68 and 69”?
**A.** HDR rates compared to Cas9 (normalized knock-in rates) (Beta-Catenin1 [1]; B-Cat-G3): ~2.5 ×; absolute mCherry+ cells relative to Cas9-NT or repair template alone (Beta-Catenin1 [1]; Beta-Catenin-G1): significant increases in mCherry+ cells; numbers of mCherry+ cells compared to repair template (Beta-Catenin1 [1]; Beta-Catenin-G1): significantly increased numbers of mCherry+ cells; nested junction PCR of RLucRT integration (5′ and 3′) (AAVS1 [2]; AAVS1-G1): Strong specific amplification; luminescence relative to Cas9 (AAVS1 [2]; AAVS1 G1): ~2.5 fold; luminescence relative to Cas9 (AAVS1 [2]; AAVS1 G2): ~2 fold; luminescence, AAVS1-G1 compared with AAVS1-G2 (AAVS1 [2]; background subtracted): significantly higher luminescence; increase in HDR rates compared to Cas9 (Cas9 normalized luminescence) (AAVS1 [2]; both G1 and G2): 2-3 ×; toxicity in H1299 cells compared to A549 (H1299 cells; H1299 cells (lack functional p53 gene), H2B-G4 guide): small reduction; cellular viability compared to RLucRT alone (H1299 cells): slightly reduced; cellular viability compared to RLucRT alone (H1299 cells; listed as Cas9-HR8): no gross changes in cellular viability; percent cells with 1-10 RPA foci (U2OS cells; [6]): increased the percentage of cells with RPA foci; percent cells with any RPA foci (U2OS cells; [6]): increased the percentage of cells with RPA foci; percent cells with 11-100 RPA foci compared to Cas9 (U2OS cells; targeting hH2B and Beta-Catenin1): significant decrease in cells with 11-100 RPA foci; cellular fluorescence (expression) levels of mNeon+ cells compared to Cas9 ([3]; 14 days): much more uniform and lower expression levels; absolute numbers of mNeon+ cells ([3]; SHS-231-G1, SHS-231-mNeon RT, 14 days post-transfection): 3652; mNeon cell counts normalized to Cas9 ([3]; SHS-231-G2, two independent experiments): increase of HDR rates; GFP+ cells compared to Cas9 [3, 7]: significantly more GFP+ cells; total cells compared to Cas9 [3, 7]: significantly more total cells; PCR of 5′ and 3′ knock-in junctions (endogenous H2B; genome specific plus RT specific primers): Successful amplification; HDR rate (cells with nuclear localized mNeon fluorescence) (endogenous H2B; hH2B-G4, two days, compared to Cas9-HR 4 or Cas9): significant increase in HDR rate; HDR rates compared to Cas9 (normalized luminescence) (AAVS1 [4]): ~2.5 ×; fold change in mCherry+ cells relative to Cas9 (Beta-Catenin1 [5]; G2, day 3): ~2.5 fold; fold change in mCherry+ cells relative to Cas9 (Beta-Catenin1 [5]; G3, day 3): ~2.5 fold; fold increase in mCherry+ cells relative to Cas9 (Beta-Catenin1 [5]; all guide polynucleotides (G1, G2, G3), day 3): > 2 fold; mCherry+ cells compared to Cas9 (Beta-Catenin1 [5]; all three gRNAs, day 3): significant increases in mCherry+ cells; positive cell count compared to Beta-Catenin1:mCherry alone (Beta-Catenin1 [5]; average mCherry+ cells per image section, day 3): significant increases in positive cell count
